The record followed here is patent publication US10633375B2, “Oxopicolinamide derivative, preparation method therefor and pharmaceutical use thereof” (Jiangsu Hengrui Medicine Co., Ltd., priority 2016, dated 2020).

As usually defined, the IC50 is the midpoint of a concentration-inhibition curve. Low readings indicate greater potency, high ones weaker potency.

Coagulation Factor XIa protease, sequence (P03951 388-625): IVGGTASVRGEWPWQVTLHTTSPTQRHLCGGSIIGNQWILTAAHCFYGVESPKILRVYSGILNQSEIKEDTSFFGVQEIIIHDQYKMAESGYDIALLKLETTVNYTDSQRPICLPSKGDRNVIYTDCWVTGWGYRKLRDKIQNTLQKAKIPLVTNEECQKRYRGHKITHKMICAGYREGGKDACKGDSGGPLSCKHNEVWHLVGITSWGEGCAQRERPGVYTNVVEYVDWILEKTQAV
Coagulation Factor XIa protease, sequence (P03951 19-387 partner): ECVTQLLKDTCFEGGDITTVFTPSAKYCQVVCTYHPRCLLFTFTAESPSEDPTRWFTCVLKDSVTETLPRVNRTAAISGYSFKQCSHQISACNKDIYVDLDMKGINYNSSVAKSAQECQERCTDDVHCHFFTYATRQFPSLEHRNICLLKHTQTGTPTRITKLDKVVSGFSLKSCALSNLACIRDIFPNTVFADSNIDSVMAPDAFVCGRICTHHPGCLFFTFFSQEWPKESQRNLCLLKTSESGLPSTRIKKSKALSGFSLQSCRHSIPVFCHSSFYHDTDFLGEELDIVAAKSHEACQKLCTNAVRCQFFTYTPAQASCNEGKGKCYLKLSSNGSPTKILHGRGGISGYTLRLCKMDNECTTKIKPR

This experiment addresses Coagulation Factor XIa protease (Homo sapiens (Human), UniProt P03951). Briefly: Inhibition of Factor XIa detected by absorption photometry. As to conditions: absorbance at 405 nm, 10 minutes at 37° C. Format: biochemical. The procedure:
Test Example 1: Biological Activity of the Compounds of the Present Invention on
The Inhibition of Factor XIa Detected by Absorption Photometry
1. Experimental Materials
Enzyme: Coagulation Factor XIa protease (Abcam, Art. No ab62411)
Substrate: Coagulation Factor XIa specific substrate (HYPHEN1310 med, Art. No. Biophen cs-21(66))
2. Experimental Procedure
20 mM of test compound dissolved in 100% DMSO was diluted to 200, 20, 2, 0.2, 0.02, 0.002 μM with 100% DMSO; 1 μl of the compound was added to each well in a 384-well plate, blank and control wells were replaced with DMSO. The plate was centrifuged to remove the compound to the bottom. 10 μl (2.5 μg/ml) of FXIa enzyme solution was added to each well, and 10 μl of buffer was added to the blank well. The plate was centrifuged to remove the enzyme solution to the bottom.
Finally, 10 μl of 2 mM substrate were added to each well, and the plate was centrifuged to remove the substrate solution to the bottom.
The plate was incubated for 10 minutes at 37° C.; and then the absorbance was measured at 405 nm.
Take `COc1cn(C(Cc2ccc(NC(C)=O)cc2)C(=O)Nc2ccc(C(=O)O)cc2)c(=O)cc1-c1cc(Cl)ccc1C(C)=O` (stereo not drawn) [Example 75, 4-(3-(4-acetamidophenyl)-2-(4-(2-acetyl-5-chlorophenyl)-5-methoxy-2-oxopyridin-1(2H)-yl)propanamido)benzoic acid]: the IC50 worked out at 100 nM.
Regarding `COc1cn(C(Cc2c(Cl)cccc2Cl)C(=O)Nc2ccc(C(=O)O)cc2)c(=O)cc1-c1cc(Cl)ccc1C(C)=O` (stereo not drawn) [Example 76, 4-(2-(4-(2-acetyl-5-chlorophenyl)-5-methoxy-2-oxopyridin-1(2H)-yl)-3-(2,6-dichlorophenyl)propanamido)benzoic acid], inhibition was half-maximal at 100 nM (IC50).
Compound `COc1ccccc1CC(C(=O)Nc1ccc(C(=O)O)cc1)n1cc(OC)c(-c2cc(Cl)ccc2C(C)=O)cc1=O` (stereo not drawn) [Example 78, 4-(2-(4-(2-acetyl-5-chlorophenyl)-5-methoxy-2-oxopyridin-1(2H)-yl)-3-(2-methoxyphenyl)propanamido)benzoic acid] came in with an IC50 of 72 nM.
To `COc1cn(C(Cc2ccccn2)C(=O)Nc2ccc(C(=O)O)cc2)c(=O)cc1-c1cc(Cl)ccc1C(C)=O` (stereo not drawn) [Example 79, 4-(2-(4-(2-acetyl-5-chlorophenyl)-5-methoxy-2-oxopyridin-1(2H)-yl)-3-(pyridin-2-yl)propanamido)benzoic acid] belongs 45 nM.
The value for `COc1cn(C(Cc2cccnc2)C(=O)Nc2ccc(C(=O)O)cc2)c(=O)cc1-c1cc(Cl)ccc1C(C)=O` (stereo not drawn) [Example 82, 4-(2-(4-(2-acetyl-5-chlorophenyl)-5-methoxy-2-oxopyridin-1(2H)-yl)-3-(pyridin-3-yl)propanamido)benzoic acid] was 68 nM.
To `COc1cn([C@H](Cc2cccnc2)C(=O)Nc2ccc(C(=O)O)cc2)c(=O)cc1-c1cc(Cl)ccc1C(C)=O` [Example 83, (R)-4-(2-(4-(2-acetyl-5-chlorophenyl)-5-methoxy-2-oxopyridin-1 (2H)-yl)-3-(pyridin-3-yl)propanamido)benzoic acid] belongs over 10000 nM; to `COc1cn(C(Cc2ccncc2)C(=O)Nc2ccc(C(=O)O)cc2)c(=O)cc1-c1cc(Cl)ccc1C(C)=O` (stereo not drawn) [Example 86, 4-(2-(4-(2-acetyl-5-chlorophenyl)-5-methoxy-2-oxopyridin-1(2H)-yl)-3-(pyridin-4-yl)propanamido)benzoic acid], 99 nM.
Compound `COc1cn(C(Cc2ccccc2C#N)C(=O)Nc2ccc(C(=O)O)cc2)c(=O)cc1-c1cc(Cl)ccc1C(C)=O` (stereo not drawn) [Example 87, 4-(2-(4-(2-acetyl-5-chlorophenyl)-5-methoxy-2-oxopyridin-1(2H)-yl)-3-(2-cyanophenyl)propanamido)benzoic acid] gave an IC50 of 73 nM.
To `COc1cn(C(Cc2cccc(C#N)c2)C(=O)Nc2ccc(C(=O)O)cc2)c(=O)cc1-c1cc(Cl)ccc1C(C)=O` (stereo not drawn) [Example 88, 4-(2-(4-(2-acetyl-5-chlorophenyl)-5-methoxy-2-oxopyridin-1(2H)-yl)-3-(3-cyanophenyl)propanamido)benzoic acid] belongs 74 nM.
`COc1cn(C(Cc2ccc(C#N)cc2)C(=O)Nc2ccc(C(=O)O)cc2)c(=O)cc1-c1cc(Cl)ccc1C(C)=O` (stereo not drawn) [Example 90, 4-(2-(4-(2-acetyl-5-chlorophenyl)-5-methoxy-2-oxopyridin-1(2H)-yl)-3-(4-cyanophenyl)propanamido)benzoic acid]: the IC50 turned out to be 100 nM.
The value for `COc1cn([C@H](Cc2ccn(C3CC3)n2)C(=O)Nc2ccc(C(=O)O)cc2)c(=O)cc1-c1cc(Cl)ccc1C(C)=O` [Example 95, (R)-4-(2-(4-(2-acetyl-5-chlorophenyl)-5-methoxy-2-oxopyridin-(2H)-yl)-3-(1-cyclopropyl-1H-pyrazol-3-yl)propanamido)benzoic acid] was 7510 nM; that for `COc1cn([C@@H](Cc2ccn(C)n2)C(=O)Nc2ccc(C(=O)O)cc2)c(=O)cc1-c1cc(Cl)ccc1C(C)=O` [Example 101, (S)-4-(2-(4-(2-acetyl-5-chlorophenyl)-5-methoxy-2-oxopyridin-1(2H)-yl)-3-(1-methyl-1H-pyrazol-3-yl)propanamido)benzoic acid] was 23 nM; that for `COc1cn([C@H](Cc2ccn(C)n2)C(=O)Nc2ccc(C(=O)O)cc2)c(=O)cc1-c1cc(Cl)ccc1C(C)=O` [Example 102, (R)-4-(2-(4-(2-acetyl-5-chlorophenyl)-5-methoxy-2-oxopyridin-1(2H)-yl)-3-(1-methyl-1H-pyrazol-3-yl)propanamido)benzoic acid] was 8210 nM.
To `COc1cn(C(Cc2cnn(C)c2)C(=O)Nc2ccc(C(=O)O)cc2)c(=O)cc1-c1cc(Cl)ccc1C(C)=O` (stereo not drawn) [Example 103, 4-(2-(4-(2-acetyl-5-chlorophenyl)-5-methoxy-2-oxopyridin-1(2H)-yl)-3-(1-methyl-1H-pyrazol-4-yl)propanamido)benzoic acid] belongs 70 nM; to `COc1cn(C(CCOC(C)(C)C)C(=O)Nc2ccc(C(=O)O)cc2)c(=O)cc1-c1cc(Cl)ccc1C(C)=O` (stereo not drawn) [Example 110, 4-(2-(4-(2-acetyl-5-chlorophenyl)-5-methoxy-2-oxopyridin-1(2H)-yl)-4-(tert-butoxy)butanamido)benzoic acid], 53 nM.
The value for `CCC(=O)c1ccc(Cl)cc1-c1cc(=O)n(C(CCOC(C)(C)C)C(=O)Nc2ccc3nccnc3c2)cc1OC` (stereo not drawn) [Example 113, 4-(tert-butoxy)-2-(4-(5-chloro-2-propionylphenyl)-5-methoxy-2-oxopyridin-(2H)-yl)-N-(quinoxalin-6-yl)butanamide] was 33 nM.
For the compound `CCC(=O)c1ccc(Cl)cc1-c1cc(=O)n([C@H](CCOC(C)(C)C)C(=O)Nc2ccc3nccnc3c2)cc1OC` [Example 115, (R)-4-(tert-butoxy)-2-(4-(5-chloro-2-propionylphenyl)-5-methoxy-2-oxopyridin-1(2H)-yl)-N-(quinoxalin-6-yl)butanamide], the IC50 is over 10000 nM.
`CCC(=O)c1ccc(Cl)cc1-c1cc(=O)n(C(CCOC(C)(C)C)C(=O)Nc2ccc3[nH]c(C(=O)O)cc3c2)cc1OC` (stereo not drawn) [Example 119, 5-(4-(tert-butoxy)-2-(4-(5-chloro-2-propionylphenyl)-5-methoxy-2-oxopyridin-1(2H)-yl)butanamido)-1H-indole-2-carboxylic acid] registered a half-inhibitory concentration (IC50) of 45 nM.
To `COc1cn(C(CCOC(C)(C)C)C(=O)Nc2ccc(C(=O)O)cc2)c(=O)cc1-c1c(C(C)=O)ccc(Cl)c1F` (stereo not drawn) [Example 120, 44-(2-(4-(6-acetyl-3-chloro-2-fluorophenyl)-5-methoxy-2-oxopyridin-1(2H)-yl)-4-(tert-butoxy)butanamido)benzoic acid] belongs 49 nM; to `CCC(=O)c1ccc(Cl)cc1-c1cc(=O)n(C(CCOC(C)(C)C)C(=O)Nc2ccc3ncncc3c2)cc1OC` (stereo not drawn) [Example 121, 4-(tert-butoxy)-2-(4-(5-chloro-2-propionylphenyl)-5-methoxy-2-oxopyridin-1(2H)-yl)-N-(quinazolin-6-yl)butanamide], 67 nM; to `COc1cn([C@@H](CCOC(C)(C)C)C(=O)Nc2ccc(C(N)=O)cc2)c(=O)cc1-c1cc(Cl)ccc1C(C)=O` [Example 122, (S)-4-(2-(4-(2-acetyl-5-chlorophenyl)-5-methoxy-2-oxopyridin-1(2H)-yl)-4-(tert-butoxy)butanamido)benzamide], 100 nM.
